Legend:
human TRPV1 [1] = target: T1, human TRPV1 (Homo sapiens (Human), UniProt Q8NER1); assay: Capsaicin Activation Assay (intracellular Ca2+, FLIPR); type: cell-based; conditions: recombinant HEK293 cells expressing hTRPV1, 50 nM capsaicin
Summary of the method: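 Ca2+ fluorescence was recorded by FLIPR every 1 to 5 seconds in HEK293 cells, clonally selected for stable human TRPV1 expression and plated one day ahead. Test compounds came as serial dilutions of 10 mM DMSO stocks.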

human TRPV1 [2] = target: T1, human TRPV1; assay: Acid Activation Assay (pH 5.0, intracellular Ca2+, FLIPR); type: cell-based; conditions: percentage of the maximal pH 5.0-induced response remaining; recombinant HEK293 hTRPV1 cells; maximum concentration tested 37.5 μM
Summary of the method: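 Readout: peak [Ca2+]i fluorescence over baseline on FLIPR, expressed as percentage remaining of the maximal pH 5.0-evoked signal. Stable hTRPV1-HEK293 cells with Calcium-4 dye received compound (12 half-log concentrations, maximum 37.5 μM) 3 min before acidic pH 5.0 buffer.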

rats [3] = assay: Rat acute capsaicin-induced flinching behavior; type: in vivo; conditions: 1 h, oral dose given as 100 nmol/kg, capsaicin 2.5 μg into hind paw one hour after compound, five minute observation, relative to control-treated animals, read-out: % effect (percent reduction in the number of flinching behaviors)
Protocol: Rats were placed in individual observation cages. Following an acclimation period of 30 minutes, selected compounds were administered orally at a dose of 100 nmol/kg in a vehicle (10% ethanol/20% Tween 80/70% polyethylene glycol-400) at a volume of 2 mL/kg. One hour after administration of the compound, 2.5 μg of capsaicin in a 10 μL solution of 10% ethanol/90% hydroxypropyl-β-cyclodextrin was injected subcutaneously into the dorsal aspect of the right hind paw. The observation cage was then suspended above mirrors in order to facilitate observation. […] The number of flinching behaviors of the injured paw was recorded during the five minute observation period (Gilchrist, H. D.; Allard, B. L.; Simone, D. A.; Enhanced withdrawal responses to heat and mechanical stimuli following intraplantar injection of capsaicin in rats. Pain, 1996, 67, 179-188). The percent reduction in the number of flinching behaviors produced from oral administration of the test compounds relative to control-treated animals (% effect) is reported in Table 2.

rats [4] = assay: Sodium iodoacetate-induced knee joint osteoarthritic pain model (hind limb grip force); type: in vivo; conditions: rat, po, single acute dose, 1 hour after administration, 20 days after sodium iodoacetate, read-out: % effect (% return to normalcy of hind limb grip force)
Protocol: Unilateral knee joint osteoarthritis was induced in the rats by a single intra-articular (i.a.) injection of sodium iodoacetate (3 mg in 0.05 mL sterile isotonic saline) into the right knee joint cavity under light isoflurane anesthesia using a 26 G needle. […] Pain behavioral assessment of hind limb grip force was conducted by recording the maximum compressive force exerted on the hind limb strain gauge setup, in a commercially available grip force measurement system (Columbus Instruments, Columbus, Ohio). The grip force data was converted to a maximum hindlimb cumulative compressive force (CFmax) (gram force)/kg body weight for each animal. The analgesic effects of test compounds were determined 20 days following the i.a. injection of sodium iodoacetate. The vehicle control group for each compound being tested was assigned 0% whereas the age matched naïve group was assigned as being 100% (normal). The % effect for each dose group was then expressed as % return to normalcy compared to the naïve group. Test compounds were administered orally in 10% ethanol/20% Tween 80/70% polyethylene glycol-400 vehicle at a volume of 2 mL/kg. The assessment of the analgesic effects of test compounds was made 1 hour following oral administration. The assessment of the analgesic effects of test compounds can be made following a single dose or following repeated administration wherein the frequency of dosing is 1 to 2 times daily. The duration of such repeated daily dosing may last for any time greater than one day. A typical duration of repeated daily dosing is about 5 days to about 12 days.

rats [5] = assay: Rat tail immersion assay of noxious thermosensation; type: in vivo; conditions: morphine 6 mg/kg i.p. in saline, 55° C. water bath, relative to vehicle control
Protocol: Compounds were tested for their effects on noxious thermosensation using the tail immersion assay. Testing was performed one hour following oral administration of 100 μmol/kg of the compound in 10% ethanol/20% Tween-80/70% PEG-400 (2 mL/kg). Mophine (6 mg/kg) was administered interperitoneally (i.p.) using saline (2 mL/kg) as the vehicle. For testing, a circulating water bath was heated to 55° C. Thirty to sixty minutes post dosing, the rats were handled for a few seconds to calm them down and then cupped with their back against the testers hand at a slight angle with head facing away from tester. With rat in one hand and a 0.01 second stopwatch in the other hand, the tail was quickly immersed 6-8 cm in water bath or to a distance leaving 2-3 cm of tail out of water. The timer was started simultaneously. When the rat flinched or attempted withdrawal, timer was immediately stopped and the rat's tail was quickly removed from water bath. This response latency (in seconds) was recorded. Process was repeated 3 times with 3-4 minutes between readings for a final average.
For a given compound, a percent increase in the average response latency (in seconds) for tail withdrawal relative to a vehicle control was determined % increase=[(tc−tv)/tv]×100% […]
Table 1 reports the % increase in tail withdrawal latency measured for the compounds tested. […]

T1 sequence (Q8NER1 whole entry): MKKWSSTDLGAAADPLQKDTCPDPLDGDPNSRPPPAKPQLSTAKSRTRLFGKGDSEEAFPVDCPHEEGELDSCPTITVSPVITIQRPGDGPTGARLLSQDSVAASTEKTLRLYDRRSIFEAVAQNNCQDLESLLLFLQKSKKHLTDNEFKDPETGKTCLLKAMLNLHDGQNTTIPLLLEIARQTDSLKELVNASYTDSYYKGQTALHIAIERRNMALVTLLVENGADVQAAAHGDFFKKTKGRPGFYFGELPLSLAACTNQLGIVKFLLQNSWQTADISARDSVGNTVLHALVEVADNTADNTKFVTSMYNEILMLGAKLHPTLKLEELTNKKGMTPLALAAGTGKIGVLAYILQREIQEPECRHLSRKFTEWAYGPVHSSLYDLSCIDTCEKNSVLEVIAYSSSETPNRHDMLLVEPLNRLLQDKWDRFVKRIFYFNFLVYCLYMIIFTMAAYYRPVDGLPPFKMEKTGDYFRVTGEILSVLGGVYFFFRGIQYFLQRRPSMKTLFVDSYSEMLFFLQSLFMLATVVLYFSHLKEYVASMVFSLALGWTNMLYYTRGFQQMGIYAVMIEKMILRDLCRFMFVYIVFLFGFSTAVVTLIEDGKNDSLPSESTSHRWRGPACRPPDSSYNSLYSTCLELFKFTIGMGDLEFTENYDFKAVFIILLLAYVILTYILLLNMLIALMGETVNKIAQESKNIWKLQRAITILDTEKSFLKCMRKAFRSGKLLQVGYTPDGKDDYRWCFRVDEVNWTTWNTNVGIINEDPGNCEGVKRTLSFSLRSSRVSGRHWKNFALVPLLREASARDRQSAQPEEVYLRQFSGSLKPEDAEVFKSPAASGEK

SMILES | IC50 (human TRPV1 [1]) [nM] | human TRPV1 H^+ (max % remain) (human TRPV1 [2]) [%] | inhibition in vivo at 0.1 µmol/kg (rats [3]) [%] | inhibition in vivo at 13 mg/kg (rats [4]) [%] | inhibition in vivo at 10 mg/kg (rats [4]) [%] | % Increase in tail withdrawal latency (rats [5])
CN1Cc2ccc(NC(=O)N[C@@H]3C[C@](C)(C(F)(F)F)Oc4ccccc43)cc2NC1=O [Example 18, 1-(3-methyl-2-oxo-1,2,3,4-tetrahydroquinazolin-7-yl)-3-[(2R,4R)-2-methyl-2-(trifluoromethyl)-3,4-dihydro-2H-chromen-4-yl]urea] | 48 | 51 | 64 | 62 |  | 
CC1(C)C[C@@H](NC(=O)Nc2ccc3c(c2)NC(=O)CO3)c2ccc(F)cc2O1 [Example 38, 1-[(4R)-7-fluoro-2,2-dimethyl-3,4-dihydro-2H-chromen-4-yl]-3-(3-oxo-3,4-dihydro-2H-1,4-benzoxazin-6-yl)urea] | 56 | 92 | 69 |  | 63 | 
CC1(C)C[C@@H](NC(=O)Nc2ccc3c(c2)NC(=O)CC3)c2ccc(F)c(F)c2O1 [Example 33, 1-[(4R)-7,8-difluoro-2,2-dimethyl-3,4-dihydro-2H-chromen-4-yl]-3-(2-oxo-1,2,3,4-tetrahydroquinolin-7-yl)urea] | 20 | 42 | 59 |  | 37 | 
CN1C(=O)CCc2ccc(NC(=O)N[C@@H]3CCOc4cc(C(F)(F)F)ccc43)cc21 [Example 37, 1-(1-methyl-2-oxo-1,2,3,4-tetrahydroquinolin-7-yl)-3-[(4R)-7-(trifluoromethyl)-3,4-dihydro-2H-chromen-4-yl]urea] | 50 | 60 | 78 | 43 |  | 
CN1CC[C@]23c4c5ccc(O)c4O[C@H]2[C@@H](O)C=C[C@H]3[C@H]1C5 [Morphine, morphine] |  |  |  |  |  | +++ (greater than or equal to 25% increase)
